Laboratory results: patent publication US20080312271A1, “AZABENZIMIDAZOLYL COMPOUNDS” (Pfizer Inc., priority 2006, published 2008)

Target: T1, mGluR2 receptor (metabotropic glutamate receptor 2) (Homo sapiens, UniProt Q14416)
T1 construct: expressed in transfected cells
Assay: mGluR2 Potentiator Screen, FLIPR, EC10-EC20 glutamate challenge
Type: cell-based
Conditions: not given
Outline: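 Potentiator assay in HEK cells stably expressing mGluR2 with Gα15, glutamine-depleted overnight, loaded with Fluo-4 plus probenecid and GPT/pyruvate to remove glutamate. Peak fluorescence ratio curve-fitted, with maximum set by on-plate standards.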

T1 sequence (Q14416 19-872, species assumed): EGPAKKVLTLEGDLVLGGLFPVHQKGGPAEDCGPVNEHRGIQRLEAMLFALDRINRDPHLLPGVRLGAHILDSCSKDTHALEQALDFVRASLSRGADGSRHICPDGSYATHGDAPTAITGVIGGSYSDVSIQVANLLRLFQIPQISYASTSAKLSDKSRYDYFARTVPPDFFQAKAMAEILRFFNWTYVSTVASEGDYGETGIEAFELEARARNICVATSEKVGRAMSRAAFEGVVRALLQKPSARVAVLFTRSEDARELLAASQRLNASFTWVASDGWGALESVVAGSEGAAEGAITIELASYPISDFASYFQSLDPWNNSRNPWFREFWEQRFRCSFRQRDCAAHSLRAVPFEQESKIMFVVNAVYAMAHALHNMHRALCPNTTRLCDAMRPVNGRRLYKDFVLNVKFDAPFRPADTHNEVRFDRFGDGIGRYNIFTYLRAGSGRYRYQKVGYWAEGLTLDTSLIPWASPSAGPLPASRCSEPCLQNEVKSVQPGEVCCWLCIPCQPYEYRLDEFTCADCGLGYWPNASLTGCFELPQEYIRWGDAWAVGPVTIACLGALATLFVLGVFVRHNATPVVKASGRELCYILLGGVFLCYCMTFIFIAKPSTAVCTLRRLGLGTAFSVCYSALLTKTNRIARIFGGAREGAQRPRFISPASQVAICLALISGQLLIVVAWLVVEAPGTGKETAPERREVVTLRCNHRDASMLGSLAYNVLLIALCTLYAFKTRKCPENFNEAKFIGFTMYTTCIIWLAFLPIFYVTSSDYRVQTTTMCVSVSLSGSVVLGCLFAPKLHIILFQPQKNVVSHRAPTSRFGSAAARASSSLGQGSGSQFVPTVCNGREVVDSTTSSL

| SMILES | EC50 |
| --- | --- |
| CCCOc1ccc(Cl)cc1C1CCN(Cc2nc3cccnc3n2C)CC1 [compound 40] | 410 nM |
| CCOc1ccc(Cl)cc1C1CCN(Cc2nc3ncccc3n2C)CC1 [compound 41] | 4810 nM |
| CCOc1ccc(Cl)cc1C1CCN(Cc2nc3cccnc3n2C)CC1 [compound 42] | 501 nM |
| COc1ccc(Cl)cc1C1CCN(Cc2nc3ncccc3n2C)CC1 [compound 43] | 203 nM |
| COc1ccc(Cl)cc1C1CCN(Cc2nc3cccnc3n2C)CC1 [compound 44] | > 808 nM |
| C#CCOc1ccc(Cl)cc1C1CCN(Cc2nc3ncccc3n2C)CC1 [compound 45] | 72.6 nM |
| COc1ccccc1C1CCN(Cc2nc3cnccc3n2C)CC1 [compound 46] | 1450 nM |
| Cn1c(CN2CCC(c3ccc(C(F)(F)F)cc3)CC2)nc2cnccc21 [compound 47] | 168 nM |
| Cn1c(CN2CCC(c3ccccc3C(F)(F)F)CC2)nc2cnccc21 [compound 48] | 481 nM |
| Cn1c(CN2CCC(c3ccccc3F)CC2)nc2cnccc21 [compound 49] | 1050 nM |
| Cn1c(CN2CCC(c3ccccc3C(F)(F)F)CC2)nc2cccnc21 [compound 50] | 406 nM |
| COc1ccccc1C1CCN(Cc2nc3ncccc3n2C)CC1 [compound 51] | 1540 nM |
| Cn1c(CN2CCC(c3ccc(C(F)(F)F)cc3)CC2)nc2ncccc21 [compound 52] | 47.9 nM |
| Cn1c(CN2CCC(c3ccccc3C(F)(F)F)CC2)nc2ncccc21 [compound 53] | 105 nM |
| Cn1c(CN2CCC(c3ccccc3F)CC2)nc2ncccc21 [compound 54] | 1590 nM |
| COc1ccc(C(F)(F)F)cc1C1CCN(Cc2nc3ncccc3n2C)CC1 [compound 55] | 211 nM |
| COc1ccccc1[C@]1(C)CCN(Cc2nc3ncccc3n2C)C[C@@H]1C [compound 56] | 3820 nM |
| Cn1c(CN2CCC(c3cc(C(F)(F)F)ccc3F)CC2)nc2cnccc21 [compound 57] | 448 nM |
| Cn1c(CN2CCC(c3cc(C(F)(F)F)ccc3F)CC2)nc2ncccc21 [compound 58] | 5950 nM |
| COc1ccccc1C1CCN(Cc2nc3cccnc3n2C)CC1C (stereo not shown) [compound 59] | 349 nM |
| COc1ccccc1C1CCN(Cc2nc3ncccc3n2C)CC1C (stereo not shown) [compound 60] | 302 nM |
| Cc1ccc(C)c(C2CCN(Cc3nc4ncccc4n3C)CC2)c1 [compound 61] | 290 nM |

| SMILES | EC50 |
| --- | --- |
| Cc1cccc(C2CCN(Cc3nc4ncccc4n3C)CC2)c1 [compound 62] | 617 nM |
| COc1cc(C(F)(F)F)ccc1C1CCN(Cc2nc3cnccc3n2C)CC1 [compound 63] | 834 nM |
| COc1cc(C(F)(F)F)ccc1C1CCN(Cc2nc3ncccc3n2C)CC1 [compound 64] | 11.1 nM |
| Cn1c(CN2CCC(c3cc(C(F)(F)F)cc(C(F)(F)F)c3)CC2)nc2ncccc21 [compound 65] | 144 nM |
| Cn1c(CN2CCC(c3ccc(F)cc3)CC2)nc2ncccc21 [compound 67] | 2360 nM |
| Cc1cc(F)ccc1C1CCN(Cc2nc3ncccc3n2C)CC1 [compound 69] | 353 nM |
| CC1CN(Cc2nc3ncccc3n2C)CCC1c1ccc(C(F)(F)F)cc1 (stereo not shown) [compound 70] | 111 nM |
| CC1CN(Cc2nc3ncccc3n2C)CCC1c1ccccc1F (stereo not shown) [compound 72] | 301 nM |
| Cn1c(CN2CCC(c3cc(F)ccc3F)CC2)nc2ncccc21 [compound 74] | 782 nM |
| Cn1c(CN2CCC(c3cc(Cl)ccc3F)CC2)nc2ncccc21 [compound 75] | 324 nM |
| Cn1c(CN2CCC(c3ccc(C(F)(F)F)cc3)C(C)(C)C2)nc2ncccc21 (stereo not shown) [compound 76] | 745 nM |
| Cn1c(CN2CCC(c3ccccc3C#N)CC2)nc2ncccc21 [compound 77] | > 5700 nM |
| Cn1c(CN2CCC(c3cccc(Cl)c3)CC2)nc2ncccc21 [compound 78] | 880 nM |
| Cn1c(CN2CCC(c3cccc(C(C)(C)C)c3)CC2)nc2ncccc21 [compound 79] | 124 nM |
| Cn1c(CN2CCC(c3ccc(Cl)cc3)CC2)nc2ncccc21 [compound 80] | > 9110 nM |
| COc1ccc(C2CCN(Cc3nc4ncccc4n3C)CC2)cc1 [compound 81] | 9770 nM |
| Cn1c(CN2CCC(c3ccc(F)cc3F)CC2)nc2ncccc21 [compound 82] | 251 nM |
| Cn1c(CN2CCC(c3ccc(F)cc3F)CC2)nc2cnccc21 [compound 84] | 218 nM |
| Cn1c(CN2CCC(c3ccc(F)cc3F)CC2)nc2cccnc21 [compound 85] | 199 nM |
| Cn1c(CN2CCC(c3ccc(C(F)(F)F)cc3)C(O)C2)nc2ncccc21 (stereo not shown) [compound 86] | > 2750 nM |
| COc1cc(F)ccc1C1CCN(Cc2nc3ncccc3n2C)CC1 [compound 87] | 212 nM |
| COc1cc(F)ccc1C1CCN(Cc2nc3cnccc3n2C)CC1 [compound 88] | 372 nM |

| SMILES | EC50 |
| --- | --- |
| Cc1ccccc1C1CCN(Cc2nc3ncccc3n2C)CC1 [compound 89] | 823 nM |
| Cn1c(CN2CCC(c3cc(F)cc(F)c3)CC2)nc2ncccc21 [compound 91] | 985 nM |
| COc1ccc(C2CCN(Cc3nc4ncccc4n3C)CC2)cc1F [compound 92] | 2800 nM |
| Cn1c(CN2CCC(c3ccc(C(F)(F)F)cc3)CC2)nc2ccncc21 [compound 93] | 196 nM |
| CCOc1ccc(C2CCN(Cc3nc4ncccc4n3C)CC2)cc1 [compound 98] | 2270 nM |
| Cn1c(CN2CCC(F)(c3ccc(C(F)(F)F)cc3)CC2)nc2ncccc21 [compound 99] | 434 nM |
| Cn1c(CN2CCC(c3ccc(C(F)(F)F)cc3)C(F)C2)nc2ncccc21 (stereo not shown) [compound 100] | 315 nM |
| Cn1c(CN2CCC(c3ccc(F)c(Cl)c3)CC2)nc2ncccc21 [compound 101] | 313 nM |
| Cn1c(CN2CCC(c3ccc(F)c(Cl)c3)CC2)nc2cnccc21 [compound 102] | 482 nM |
| Cn1c(CN2CCC(c3ccc(F)c(Cl)c3)CC2)nc2cccnc21 [compound 103] | 367 nM |
| Cc1ccc(C2CCN(Cc3nc4ncccc4n3C)CC2)cc1 [compound 104] | 710 nM |
| Cc1cc(NC(=O)c2cccc(C3CCN(Cc4nc5ncccc5n4C)CC3)c2)n[nH]1 [compound 105] | 3660 nM |
| Cn1c(CN2CCC(c3ccc(Cl)c(F)c3)CC2)nc2ncccc21 [compound 106] | 190 nM |
| Cn1c(CN2CCC(c3ccc(Cl)c(F)c3)CC2)nc2cnccc21 [compound 107] | 315 nM |
| Cn1c(CN2CCC(c3cccc(F)c3F)CC2)nc2ncccc21 [compound 108] | 307 nM |
| Cn1c(CN2CCC(c3ccc(Cl)c(F)c3)CC2)nc2cccnc21 [compound 109] | 378 nM |
| Cn1c(CN2CCC(c3ccc(Cl)cc3F)CC2)nc2ncccc21 [compound 110] | 27.1 nM |
| Cn1c(CN2CCC(c3ccc(Cl)cc3F)CC2)nc2cccnc21 [compound 112] | 58.5 nM |
| Cn1c(CN2CCC(c3ccc(Cl)cc3F)CC2)nc2cnccc21 [compound 113] | 81 nM |
| C[C@H]1CN(Cc2nc3ncccc3n2C)CC[C@H]1c1ccc(Cl)cc1F [compound 123] | > 1810 nM |
| Cn1c(CN2CCC(c3c(F)cccc3C(F)(F)F)CC2)nc2cnccc21 [compound 228] | > 458 nM |

Same assay, conditions: mGluR2 potentiator screen, FLIPR, EC10-EC20 glutamate challenge

| SMILES | EC50 |
| --- | --- |
| Cn1c(CN2CCC(c3c(F)cccc3C(F)(F)F)CC2)nc2ncccc21 [compound 229] | 212 nM |
| Cn1c(CN2CCC(c3ccc(OC(F)(F)F)cc3)CC2)nc2ncccc21 [compound 231] | 84.5 nM |
| Cn1c(CN2CCC(c3ccc(C(F)(F)F)cc3F)CC2)nc2cnccc21 [compound 236] | 50.8 nM |
| Cn1c(CN2CCC(c3ccc(OC(F)(F)F)cc3)CC2)nc2cnccc21 [compound 237] | 160 nM |
| Cc1cc(OC(F)(F)F)ccc1C1CCN(Cc2nc3cnccc3n2C)CC1 [compound 240] | 96.8 nM |
| Cc1cc(OC(F)(F)F)ccc1C1CCN(Cc2nc3ncccc3n2C)CC1 [compound 241] | 50.7 nM |
| Cc1cc(C(F)(F)F)ccc1C1CCN(Cc2nc3cnccc3n2C)CC1 [compound 242] | 85.8 nM |
| Cc1cc(C(F)(F)F)ccc1C1CCN(Cc2nc3ncccc3n2C)CC1 [compound 243] | 51.1 nM |
| CC(C)Oc1ccc(C2CCN(Cc3nc4cnccc4n3C)CC2)c(F)c1 [compound 261] | 125 nM |
| CC(C)Oc1ccc(C2CCN(Cc3nc4ncccc4n3C)CC2)c(F)c1 [compound 262] | 127 nM |
| Cn1c(CN2CCC(c3ccc(OC(F)F)cc3)CC2)nc2cnccc21 [compound 263] | 906 nM |
| Cn1c(CN2CCC(c3ccc(OC(F)F)cc3)CC2)nc2ncccc21 [compound 264] | 554 nM |
| Cn1c(CN2CCC(c3ccc(OC(F)F)cc3Cl)CC2)nc2cnccc21 [compound 265] | 164 nM |
| Cn1c(CN2CCC(c3ccc(OC(F)F)cc3Cl)CC2)nc2ncccc21 [compound 266] | 54.9 nM |
| CC(C)Oc1ccc(C2CCN(Cc3nc4cnccc4n3C)CC2)c(Cl)c1 [compound 267] | 85.5 nM |
| Cn1c(CN2CCC(c3ccc(C(F)(F)F)cc3F)CC2)nc2ncccc21 [compound 268] | 12.7 nM |
| CC(C)Oc1ccc(C2CCN(Cc3nc4ncccc4n3C)CC2)c(Cl)c1 [compound 269] | 65.7 nM |
| COc1ccc(C2CCN(Cc3nc4cnccc4n3C)CC2)c(C(F)(F)F)c1 [compound 270] | 494 nM |
| COc1ccc(C2CCN(Cc3nc4ncccc4n3C)CC2)c(C(F)(F)F)c1 [compound 271] | 494 nM |
| Cn1c(CN2CCC(c3ccc(C(F)(F)F)cc3Cl)CC2)nc2ncccc21 [compound 272] | 24.1 nM |
| Cn1c(CN2CCC(c3ccc(C(F)(F)F)cc3Cl)CC2)nc2cnccc21 [compound 273] | 85 nM |
| Cc1cc(C2CCN(Cc3nc4cnccc4n3C)CC2)ccc1C(F)(F)F [compound 276] | 88.5 nM |
| Cc1cc(C2CCN(Cc3nc4ncccc4n3C)CC2)ccc1C(F)(F)F [compound 277] | 60.5 nM |
| COc1cc(C2CCN(Cc3nc4cnccc4n3C)CC2)ccc1C(F)(F)F [compound 278] | 245 nM |
| COc1cc(C2CCN(Cc3nc4ncccc4n3C)CC2)ccc1C(F)(F)F [compound 279] | 289 nM |
| COc1cc(OC(F)(F)F)ccc1C1CCN(Cc2nc3cnccc3n2C)CC1 [compound 280] | 33.9 nM |
